Source: PubChem BioAssay AID2060508 (Molecular Pharmacology Branch, DTP, NCI, 2025)

Test system: 454973-116-R2-J3-PDC spheroids, viability, % test/control
Assay: Anticancer human tumor 454973-116-R2-J3-PDC patient-derived pancreatic carcinoma cell line growth inhibition [GQUAD]
Details: spheroids with HUVEC and MSC; for IC50: curve of first compound; for viability, T/C: stronger effect = lower value
Summary of the method: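 Tumor cells were grown as complex spheroids with HUVEC endothelial cells and mesenchymal stem cells as stroma. G-quadruplex stabilizers were combined with targeted agents over half-log dilutions from near the clinical Cmax, or from 10 microM.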

[1] = second compound 0.0316 µM, first compound 0.0316 µM
[2] = second compound 0.0316 µM, first compound 0.316 µM
[3] = second compound 0.1 µM, first compound 0.0316 µM
[4] = second compound 0.1 µM, first compound 0.316 µM
[5] = second compound 0.316 µM, first compound 0.0316 µM
[6] = second compound 0.316 µM, first compound 0.316 µM
[7] = second compound 1 µM, first compound 0.0316 µM
[8] = second compound 1 µM, first compound 0.316 µM
[9] = second compound 3.16 µM, first compound 0.0316 µM
[10] = second compound 3.16 µM, first compound 0.316 µM
[11] = second compound 10 µM, first compound 0.0316 µM
[12] = second compound 10 µM, first compound 0.316 µM
[13] = second compound 0.0316 µM, first compound 0.000999 µM
[14] = second compound 0.0316 µM, first compound 0.00316 µM
[15] = second compound 0.0316 µM, first compound 0.00999 µM
[16] = second compound 0.0316 µM, first compound 0.0999 µM
[17] = second compound 0.1 µM, first compound 0.000999 µM
[18] = second compound 0.1 µM, first compound 0.00316 µM
[19] = second compound 0.1 µM, first compound 0.00999 µM
[20] = second compound 0.1 µM, first compound 0.0999 µM
[21] = second compound 0.316 µM, first compound 0.000999 µM
[22] = second compound 0.316 µM, first compound 0.00316 µM
[23] = second compound 0.316 µM, first compound 0.00999 µM
[24] = second compound 0.316 µM, first compound 0.0999 µM
[25] = second compound 1 µM, first compound 0.000999 µM
[26] = second compound 1 µM, first compound 0.00316 µM
[27] = second compound 1 µM, first compound 0.00999 µM
[28] = second compound 1 µM, first compound 0.0999 µM
[29] = second compound 3.16 µM, first compound 0.000999 µM
[30] = second compound 3.16 µM, first compound 0.00316 µM
[31] = second compound 3.16 µM, first compound 0.00999 µM
[32] = second compound 3.16 µM, first compound 0.0999 µM
[33] = second compound 10 µM, first compound 0.000999 µM
[34] = second compound 10 µM, first compound 0.00316 µM
[35] = second compound 10 µM, first compound 0.00999 µM
[36] = second compound 10 µM, first compound 0.0999 µM
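Further: spheroids exposed to compounds for seven days.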
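Wherever viability, T/C is given: 100% = DMSO vehicle control viability.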

`COc1ccc([C@@H](O)c2cc(-c3ncnc4cc(N5CCOCC5)ccc34)c(F)cc2Cl)nn1` + CN(C)c1ccc(Nc2c3ccc(NC(=O)CCN4CCCC4)cc3nc3cc(NC(=O)CCN4CCCC4)ccc23)cc1 showed an IC50 (second compound 0.0316 µM) greater than 10000 nM, an IC50 (second compound 0.1 µM) greater than 10000 nM and an IC50 (second compound 0.316 µM) of 9200 nM. For the same compound, the IC50 (second compound 1 µM) was 6560 nM, the IC50 (second compound 3.16 µM) was 5390 nM and the IC50 (second compound 10 µM) was 2890 nM. It also gave a viability, T/C [1] of 101%, a viability, T/C (second compound 0.0316 µM, first compound 0.1 µM) of 94.6% and a viability, T/C [2] of 96.3%. For the same compound, the viability, T/C (second compound 0.0316 µM, first compound 1 µM) was 82.8%, the viability, T/C (second compound 0.0316 µM, first compound 3.16 µM) was 69.1% and the viability, T/C (second compound 0.0316 µM, first compound 10 µM) was 55.7%. For the same compound, the viability, T/C [3] was 112%, the viability, T/C (second compound 0.1 µM, first compound 0.1 µM) was 98.5% and the viability, T/C [4] was 101%. For the same compound, the viability, T/C (second compound 0.1 µM, first compound 1 µM) was 82.9%, the viability, T/C (second compound 0.1 µM, first compound 3.16 µM) was 65.5% and the viability, T/C (second compound 0.1 µM, first compound 10 µM) was 51.5%. For the same compound, the viability, T/C [5] was 93.3%, the viability, T/C (second compound 0.316 µM, first compound 0.1 µM) was 91.5% and the viability, T/C [6] was 89.1%. For the same compound, the viability, T/C (second compound 0.316 µM, first compound 1 µM) was 76.1%, the viability, T/C (second compound 0.316 µM, first compound 3.16 µM) was 66.5% and the viability, T/C (second compound 0.316 µM, first compound 10 µM) was 48.5%. The viability, T/C [7] was 89.5%, the viability, T/C (second compound 1 µM, first compound 0.1 µM) was 86.3% and the viability, T/C [8] was 88.2%. For the same compound, the viability, T/C (second compound 1 µM, first compound 1 µM) was 76.6%, the viability, T/C (second compound 1 µM, first compound 3.16 µM) was 59.4% and the viability, T/C (second compound 1 µM, first compound 10 µM) was 44.7%. For the same compound, the viability, T/C [9] was 86.1%, the viability, T/C (second compound 3.16 µM, first compound 0.1 µM) was 91.2% and the viability, T/C [10] was 85.2%. It also gave a viability, T/C (second compound 3.16 µM, first compound 1 µM) of 68.9%, a viability, T/C (second compound 3.16 µM, first compound 3.16 µM) of 59.9% and a viability, T/C (second compound 3.16 µM, first compound 10 µM) of 40.7%. The viability, T/C [11] was 76.6%, the viability, T/C (second compound 10 µM, first compound 0.1 µM) was 68.2% and the viability, T/C [12] was 81.9%. It also gave a viability, T/C (second compound 10 µM, first compound 1 µM) of 61.4%, a viability, T/C (second compound 10 µM, first compound 3.16 µM) of 50% and a viability, T/C (second compound 10 µM, first compound 10 µM) of 27.6%.
`Cn1ncnc1[C@H]1c2n[nH]c(=O)c3cc(F)cc(c23)N[C@@H]1c1ccc(F)cc1` + Cc1[nH]c2ccc(F)cc2c1-c1nc2c3cccnc3c3ncccc3c2[nH]1 was tested, and the IC50 (second compound 0.0316 µM) was greater than 316 nM, the IC50 (second compound 0.1 µM) was greater than 316 nM and the IC50 (second compound 0.316 µM) was greater than 316 nM. It also gave an IC50 (second compound 1 µM) greater than 316 nM, an IC50 (second compound 3.16 µM) greater than 316 nM and an IC50 (second compound 10 µM) greater than 316 nM. It also gave a viability, T/C [13] of 115%, a viability, T/C [14] of 95.3% and a viability, T/C [15] of 101%. The viability, T/C [1] was 87.7%, the viability, T/C [16] was 97.4% and the viability, T/C [2] was 84%. The viability, T/C [17] was 93.6%, the viability, T/C [18] was 97.6% and the viability, T/C [19] was 94.4%. For the same compound, the viability, T/C [3] was 104%, the viability, T/C [20] was 86.1% and the viability, T/C [4] was 77.6%. For the same compound, the viability, T/C [21] was 101%, the viability, T/C [22] was 99.6% and the viability, T/C [23] was 91.9%. For the same compound, the viability, T/C [5] was 92.7%, the viability, T/C [24] was 90.7% and the viability, T/C [6] was 83.8%. For the same compound, the viability, T/C [25] was 107%, the viability, T/C [26] was 104% and the viability, T/C [27] was 91.6%. It also gave a viability, T/C [7] of 98%, a viability, T/C [28] of 83.5% and a viability, T/C [8] of 81%. The viability, T/C [29] was 93.9%, the viability, T/C [30] was 98.5% and the viability, T/C [31] was 92.1%. It also gave a viability, T/C [9] of 83%, a viability, T/C [32] of 82.3% and a viability, T/C [10] of 82%. For the same compound, the viability, T/C [33] was 87.4%, the viability, T/C [34] was 100% and the viability, T/C [35] was 93%. It also gave a viability, T/C [11] of 78.4%, a viability, T/C [36] of 82.4% and a viability, T/C [12] of 76.1%.
`Cn1ncnc1[C@H]1c2n[nH]c(=O)c3cc(F)cc(c23)N[C@@H]1c1ccc(F)cc1` + Cc1cnc(CNC(=O)c2c(=O)c3ccc(N4CCCN(C)CC4)nc3n3c2sc2ccccc23)cn1 gave an IC50 (second compound 0.0316 µM) greater than 316 nM, an IC50 (second compound 0.1 µM) of 76.8 nM and an IC50 (second compound 0.316 µM) of 51.8 nM. The IC50 (second compound 1 µM) was greater than 316 nM, the IC50 (second compound 3.16 µM) was greater than 316 nM and the IC50 (second compound 10 µM) was less than 0.999 nM. For the same compound, the viability, T/C [13] was 108%, the viability, T/C [14] was 90.2% and the viability, T/C [15] was 91.4%. The viability, T/C [1] was 80.8%, the viability, T/C [16] was 70% and the viability, T/C [2] was 59%. The viability, T/C [17] was 83.1%, the viability, T/C [18] was 88.3% and the viability, T/C [19] was 71.8%. It also gave a viability, T/C [3] of 60%, a viability, T/C [20] of 48.8% and a viability, T/C [4] of 36.6%. It also gave a viability, T/C [21] of 75.8%, a viability, T/C [22] of 70.3% and a viability, T/C [23] of 65.3%. For the same compound, the viability, T/C [5] was 51.4%, the viability, T/C [24] was 47.2% and the viability, T/C [6] was 41.6%. For the same compound, the viability, T/C [25] was 64.1%, the viability, T/C [26] was 64.6% and the viability, T/C [27] was 62%. The viability, T/C [7] was 53.3%, the viability, T/C [28] was 56.3% and the viability, T/C [8] was 48.6%. For the same compound, the viability, T/C [29] was 62.1%, the viability, T/C [30] was 53.4% and the viability, T/C [31] was 60.2%. It also gave a viability, T/C [9] of 58.5%, a viability, T/C [32] of 57.1% and a viability, T/C [10] of 53.6%. The viability, T/C [33] was 0.31%, the viability, T/C [34] was 0.55% and the viability, T/C [35] was 31%. For the same compound, the viability, T/C [11] was 36.7%, the viability, T/C [36] was 0.53% and the viability, T/C [12] was 0.27%.
